# Experimental data taken from paper PMC8854719, “Phase 1A/1B dose-escalation and -expansion study to evaluate the safety, pharmacokinetics, food effects and antitumor activity of pamiparib in advanced solid tumours” (British Journal of Cancer, 2021).
# Assay: Safety and tolerability: adverse events, dose-limiting toxicities, MTD, RP2D (Phase 1A/1B)
# Format: in vivo
# Description: This was an open-label, Phase 1, dose-escalation/dose-expansion study, conducted across six study centres in Australia. The dose-escalation phase evaluated twice-daily (BID) and once-daily (QD) dosing, and the dose-expansion phase evaluated the BID RP2D from the dose-escalation phase and food effects (Fig. 1). The food-effects cohort comprised two sequences: fast followed by fed (sequence 1) and fed followed by fast (sequence 2). […] The decision to proceed to the next dose cohort was determined by the Safety Monitoring Committee and followed a modified 3 + 3 escalation scheme. […] When ≥2 DLTs occurred in the first 23 days of a dose level, the next lower dose level was declared the MTD. Safety was monitored and DLTs were assessed in all dose cohorts. […] The food-effects cohort investigated the effects of food on the PK of pamiparib in patients with advanced solid tumours.
# The QD dosing regimen was added as an amendment to the protocol with the purpose of exploring the feasibility of a more convenient regimen.
# Safety and tolerability were assessed throughout the study by monitoring adverse events (AEs), serious AEs, clinical laboratory measurements and physical examinations. Adverse events were categorised according to their severity (National Cancer Institute Common Terminology Criteria for Adverse Events v4.03) and relationship to the study treatment.
structure (smiles),measurement,setting,value
C[C@]12CCCN1CC1=NNC(=O)c3cc(F)cc4[nH]c2c1c34 [pamiparib],Treatment-emergent AE: Grade 3 or higher,40 mg BID (n = 6),3 (50.0) n (%)
same,Treatment-emergent AE: Leading to death,40 mg BID (n = 6),0 (0.0) n (%)
same,Treatment-emergent AE: Leading to dose interruption,40 mg BID (n = 6),4 (66.7) n (%)
same,Treatment-emergent AE: Leading to dose modification,40 mg BID (n = 6),4 (66.7) n (%)
same,Treatment-emergent AE: Leading to dose reduction,40 mg BID (n = 6),0 (0.0) n (%)
same,Treatment-emergent AE: Leading to treatment discontinuation,40 mg BID (n = 6),1 (16.7) n (%)
same,Treatment-emergent AE: Serious,40 mg BID (n = 6),2 (33.3) n (%)
same,Treatment-related AE,40 mg BID (n = 6),6 (100.0) n (%)
same,Treatment-related AE: Grade 3 or higher,40 mg BID (n = 6),2 (33.3) n (%)
same,Treatment-related AE: Leading to death,40 mg BID (n = 6),0 (0.0) n (%)
same,Treatment-related AE: Leading to dose interruption,40 mg BID (n = 6),3 (50.0) n (%)
same,Treatment-related AE: Leading to dose modification,40 mg BID (n = 6),3 (50.0) n (%)
same,Treatment-related AE: Leading to dose reduction,40 mg BID (n = 6),0 (0.0) n (%)
same,Treatment-related AE: Leading to treatment discontinuation,40 mg BID (n = 6),0 (0.0) n (%)
same,Treatment-related AE: Serious,40 mg BID (n = 6),0 (0.0) n (%)
same,"Upper respiratory tract infection, AE of any grade",40 mg BID (n = 6),1 (16.7) n (%)
same,"Urinary tract infection, AE of any grade",40 mg BID (n = 6),0 (0.0) n (%)
same,"Vomiting, AE of any grade",40 mg BID (n = 6),5 (83.3) n (%)
same,Dose-limiting toxicities observed (description),"40 mg BID, n = 1",Grade 2 nausea
same,Incidence of nausea,60 mg BID,54.5%
same,"Abdominal pain, AE of any grade",60 mg BID (n = 11),3 (27.3) n (%)
same,"Anaemia, AE of any grade",60 mg BID (n = 11),4 (36.4) n (%)
same,"Ascites, AE of any grade",60 mg BID (n = 11),0 (0.0) n (%)
same,"Back pain, AE of any grade",60 mg BID (n = 11),1 (9.1) n (%)
same,"Constipation, AE of any grade",60 mg BID (n = 11),1 (9.1) n (%)
same,"Cough, AE of any grade",60 mg BID (n = 11),1 (9.1) n (%)
same,"Decreased appetite, AE of any grade",60 mg BID (n = 11),1 (9.1) n (%)
same,"Diarrhoea, AE of any grade",60 mg BID (n = 11),4 (36.4) n (%)
same,Dose-limiting toxicity,60 mg BID (n = 11),0 (0.0) n (%)
same,"Dyspnoea, AE of any grade",60 mg BID (n = 11),1 (9.1) n (%)
same,"Fatigue, AE of any grade",60 mg BID (n = 11),2 (18.2) n (%)
same,"Headache, AE of any grade",60 mg BID (n = 11),0 (0.0) n (%)
same,"Hypoalbuminemia, AE of any grade",60 mg BID (n = 11),2 (18.2) n (%)
same,"Hypomagnesemia, AE of any grade",60 mg BID (n = 11),0 (0.0) n (%)
same,"Hypophosphatemia, AE of any grade",60 mg BID (n = 11),1 (9.1) n (%)
same,"Increased AST, AE of any grade",60 mg BID (n = 11),1 (9.1) n (%)
same,"Muscle spasms, AE of any grade",60 mg BID (n = 11),1 (9.1) n (%)
same,"Nausea, AE of any grade",60 mg BID (n = 11),6 (54.5) n (%)
same,"Neutropenia, AE of any grade",60 mg BID (n = 11),0 (0.0) n (%)
same,"Non-cardiac chest pain, AE of any grade",60 mg BID (n = 11),1 (9.1) n (%)
same,"Pain in extremity, AE of any grade",60 mg BID (n = 11),1 (9.1) n (%)
same,"Peripheral sensory neuropathy, AE of any grade",60 mg BID (n = 11),1 (9.1) n (%)
same,"Pleural effusion, AE of any grade",60 mg BID (n = 11),2 (18.2) n (%)
same,"Pyrexia, AE of any grade",60 mg BID (n = 11),0 (0.0) n (%)
same,Treatment-emergent AE,60 mg BID (n = 11),11 (100.0) n (%)
same,Treatment-emergent AE: Grade 3 or higher,60 mg BID (n = 11),9 (81.8) n (%)
same,Treatment-emergent AE: Leading to death,60 mg BID (n = 11),3 (27.3) n (%)
same,Treatment-emergent AE: Leading to dose interruption,60 mg BID (n = 11),8 (72.7) n (%)
same,Treatment-emergent AE: Leading to dose modification,60 mg BID (n = 11),8 (72.7) n (%)
same,Treatment-emergent AE: Leading to dose reduction,60 mg BID (n = 11),0 (0.0) n (%)
same,Treatment-emergent AE: Leading to treatment discontinuation,60 mg BID (n = 11),0 (0.0) n (%)
same,Treatment-emergent AE: Serious,60 mg BID (n = 11),9 (81.8) n (%)
same,Treatment-related AE,60 mg BID (n = 11),7 (63.6) n (%)
same,Treatment-related AE: Grade 3 or higher,60 mg BID (n = 11),1 (9.1) n (%)
same,Treatment-related AE: Leading to death,60 mg BID (n = 11),0 (0.0) n (%)
same,Treatment-related AE: Leading to dose interruption,60 mg BID (n = 11),2 (18.2) n (%)
same,Treatment-related AE: Leading to dose modification,60 mg BID (n = 11),2 (18.2) n (%)
same,Treatment-related AE: Leading to dose reduction,60 mg BID (n = 11),0 (0.0) n (%)
same,Treatment-related AE: Leading to treatment discontinuation,60 mg BID (n = 11),0 (0.0) n (%)
same,Treatment-related AE: Serious,60 mg BID (n = 11),1 (9.1) n (%)
same,"Upper respiratory tract infection, AE of any grade",60 mg BID (n = 11),1 (9.1) n (%)
same,"Urinary tract infection, AE of any grade",60 mg BID (n = 11),3 (27.3) n (%)
same,"Vomiting, AE of any grade",60 mg BID (n = 11),4 (36.4) n (%)
same,Incidence of nausea,80 mg BID,80.0%
same,"Abdominal pain, AE of any grade",80 mg BID (n = 10),2 (20.0) n (%)
same,"Anaemia, AE of any grade",80 mg BID (n = 10),4 (40.0) n (%)
